Reference: PubChem BioAssay (NCI)
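Test compounds were applied to cells in 96-well plates for 48 hours at 5 doses. At the GI50, growth is halved. TGI is the concentration that stops growth completely.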

Key:
Assay in all cases: NCI tumour cell line growth inhibition, 48 h
[1] = test system: 786-0 renal
[2] = test system: A498 renal
[3] = test system: A549 NSCLC
[4] = test system: CAKI-1 renal
[5] = test system: CCRF-CEM leukemia
[6] = test system: COLO 205 colon
[7] = test system: DU-145 prostate
[8] = test system: EKVX NSCLC
[9] = test system: HCT-116 colon
[10] = test system: HCT-15 colon
[11] = test system: HL-60(TB) leukemia
[12] = test system: HOP-62 NSCLC
[13] = test system: HS 578T breast
[14] = test system: IGROV1 ovarian
[15] = test system: K-562 leukemia
[16] = test system: KM12 colon
[17] = test system: LOX IMVI melanoma
[18] = test system: M14 melanoma
[19] = test system: MALME-3M melanoma
[20] = test system: MCF7 breast
[21] = test system: MDA-MB-231 breast
[22] = test system: MDA-MB-435
[23] = test system: MOLT-4 leukemia
[24] = test system: NCI-H226 lung
[25] = test system: NCI-H23 lung
[26] = test system: NCI-H460 lung
[27] = test system: NCI-H522 lung
[28] = test system: NCI/ADR-RES ovarian
[29] = test system: OVCAR-3 ovarian
[30] = test system: OVCAR-4 ovarian
[31] = test system: OVCAR-5 ovarian
[32] = test system: OVCAR-8 ovarian
[33] = test system: PC-3 prostate
[34] = test system: RXF 393 renal
[35] = test system: SF-268 CNS
[36] = test system: SF-295 CNS
[37] = test system: SF-539 CNS
[38] = test system: SK-MEL-28 melanoma
[39] = test system: SK-MEL-5 melanoma
[40] = test system: SK-OV-3 ovarian
[41] = test system: SN12C renal
[42] = test system: SNB-19 CNS
[43] = test system: SR leukemia
[44] = test system: SW-620 colon
[45] = test system: T-47D breast
[46] = test system: TK-10 renal
[47] = test system: U251 CNS
[48] = test system: UACC-257 melanoma
[49] = test system: UACC-62 melanoma
[50] = test system: UO-31 renal

Question: How did the GI50 [1] turn out when `CCOc1ccc2nc(S/C(=C/C=C(C#N)C#N)c3ccc(Cl)cc3)sc2c1` was run?
Answer: The GI50 was 1.95 µM.

Question: And the TGI [1]?
Answer: Its TGI is 4.37 µM.

Question: What about the GI50 [2] of the same compound?
Answer: Its GI50 is 2.46 µM.

Question: What about the TGI [2] of the same compound?
Answer: The TGI was 8.6 µM.

Question: And the GI50 [3]?
Answer: The GI50 was 16.4 µM.

Question: What about the TGI [3] of the same compound?
Answer: The TGI was 33.2 µM.

Question: What about the GI50 [4] of the same compound?
Answer: The GI50 was 4.34 µM.

Question: What about the TGI [4] of the same compound?
Answer: The TGI was 15.3 µM.

Question: What about the GI50 [5] of the same compound?
Answer: The GI50 was 0.57 µM.

Question: And the TGI [5]?
Answer: Its TGI is 3.19 µM.

Question: What about the GI50 [6] of the same compound?
Answer: The GI50 was 3.26 µM.

Question: What about the TGI [6] of the same compound?
Answer: The TGI was 11 µM.

Question: What about the GI50 [7] of the same compound?
Answer: The GI50 was 3.51 µM.

Question: And the TGI [7]?
Answer: The TGI was 10.7 µM.

Question: And the GI50 [8]?
Answer: Its GI50 is 12.9 µM.

Question: What about the TGI [8] of the same compound?
Answer: The TGI was 28.9 µM.

Question: What about the GI50 [9] of the same compound?
Answer: Its GI50 is 0.937 µM.

Question: And the TGI [9]?
Answer: Its TGI is 2.6 µM.

Question: And the GI50 [10]?
Answer: The GI50 was 2.42 µM.

Question: And the TGI [10]?
Answer: Its TGI is 8.81 µM.

Question: What about the GI50 [11] of the same compound?
Answer: Its GI50 is 3.08 µM.

Question: What about the TGI [11] of the same compound?
Answer: The TGI was 34.3 µM.

Question: And the GI50 [12]?
Answer: The GI50 was 4.08 µM.

Question: And the TGI [12]?
Answer: Its TGI is 13.2 µM.

Question: And the GI50 [13]?
Answer: The GI50 was 4.22 µM.

Question: And the TGI [13]?
Answer: Its TGI is 16.8 µM.

Question: And the GI50 [14]?
Answer: Its GI50 is 3.57 µM.

Question: What about the TGI [14] of the same compound?
Answer: The TGI was 13 µM.

Question: And the GI50 [15]?
Answer: Its GI50 is 3.43 µM.

Question: And the TGI [15]?
Answer: Its TGI is 18.3 µM.

Question: And the GI50 [16]?
Answer: The GI50 was 3.84 µM.

Question: What about the TGI [16] of the same compound?
Answer: The TGI was 15.2 µM.

Question: What about the GI50 [17] of the same compound?
Answer: The GI50 was 0.546 µM.

Question: And the TGI [17]?
Answer: Its TGI is 2.03 µM.

Question: And the GI50 [18]?
Answer: The GI50 was 2.13 µM.

Question: What about the TGI [18] of the same compound?
Answer: The TGI was 4.61 µM.

Question: And the GI50 [19]?
Answer: Its GI50 is 3.52 µM.

Question: What about the TGI [19] of the same compound?
Answer: The TGI was 21.9 µM.

Question: And the GI50 [20]?
Answer: The GI50 was 6.56 µM.

Question: And the TGI [20]?
Answer: The TGI was 26.7 µM.

Question: And the GI50 [21]?
Answer: Its GI50 is 1.91 µM.

Question: And the TGI [21]?
Answer: Its TGI is 5.08 µM.

Question: What about the GI50 [22] of the same compound?
Answer: Its GI50 is 3.18 µM.

Question: What about the TGI [22] of the same compound?
Answer: Its TGI is 9.84 µM.

Question: What about the GI50 [23] of the same compound?
Answer: Its GI50 is 1.65 µM.

Question: What about the TGI [23] of the same compound?
Answer: The TGI was greater than 100 µM.

Question: What about the GI50 [24] of the same compound?
Answer: The GI50 was 3.63 µM.

Question: And the TGI [24]?
Answer: Its TGI is 13.2 µM.

Question: And the GI50 [25]?
Answer: The GI50 was 3.1 µM.

Question: What about the TGI [25] of the same compound?
Answer: Its TGI is 10.1 µM.

Question: What about the GI50 [26] of the same compound?
Answer: The GI50 was 7.49 µM.

Question: What about the TGI [26] of the same compound?
Answer: Its TGI is 25 µM.

Question: And the GI50 [27]?
Answer: Its GI50 is 4.43 µM.

Question: What about the TGI [27] of the same compound?
Answer: The TGI was 15.2 µM.

Question: And the GI50 [28]?
Answer: The GI50 was 2.32 µM.

Question: What about the TGI [28] of the same compound?
Answer: Its TGI is 5.19 µM.

Question: And the GI50 [29]?
Answer: The GI50 was 2.99 µM.

Question: And the TGI [29]?
Answer: The TGI was 10.9 µM.

Question: What about the GI50 [30] of the same compound?
Answer: Its GI50 is 12.4 µM.

Question: What about the TGI [30] of the same compound?
Answer: Its TGI is 43.8 µM.

Question: And the GI50 [31]?
Answer: Its GI50 is 15.2 µM.

Question: And the TGI [31]?
Answer: Its TGI is 28.5 µM.

Question: What about the GI50 [32] of the same compound?
Answer: Its GI50 is 3.48 µM.

Question: And the TGI [32]?
Answer: Its TGI is 10.3 µM.

Question: And the GI50 [33]?
Answer: The GI50 was 4.16 µM.

Question: What about the TGI [33] of the same compound?
Answer: The TGI was 11.8 µM.

Question: What about the GI50 [34] of the same compound?
Answer: The GI50 was 5.3 µM.

Question: And the TGI [34]?
Answer: The TGI was 23.5 µM.

Question: What about the GI50 [35] of the same compound?
Answer: Its GI50 is 4.63 µM.

Question: And the TGI [35]?
Answer: The TGI was 19 µM.

Question: And the GI50 [36]?
Answer: The GI50 was 9.85 µM.

Question: What about the TGI [36] of the same compound?
Answer: Its TGI is 28.3 µM.

Question: And the GI50 [37]?
Answer: The GI50 was 3.6 µM.

Question: And the TGI [37]?
Answer: The TGI was 9.24 µM.

Question: And the GI50 [38]?
Answer: Its GI50 is 3.81 µM.

Question: What about the TGI [38] of the same compound?
Answer: Its TGI is 15.9 µM.

Question: And the GI50 [39]?
Answer: Its GI50 is 1.76 µM.

Question: And the TGI [39]?
Answer: The TGI was 3.86 µM.

Question: What about the GI50 [40] of the same compound?
Answer: Its GI50 is 4.34 µM.

Question: And the TGI [40]?
Answer: The TGI was 15.3 µM.

Question: And the GI50 [41]?
Answer: Its GI50 is 2.86 µM.

Question: And the TGI [41]?
Answer: Its TGI is 8.18 µM.

Question: What about the GI50 [42] of the same compound?
Answer: The GI50 was 6.72 µM.

Question: What about the TGI [42] of the same compound?
Answer: The TGI was 24.5 µM.

Question: And the GI50 [43]?
Answer: Its GI50 is 1.96 µM.

Question: What about the TGI [43] of the same compound?
Answer: Its TGI is 7.8 µM.

Question: What about the GI50 [44] of the same compound?
Answer: The GI50 was 0.631 µM.

Question: And the TGI [44]?
Answer: The TGI was 2.92 µM.

Question: And the GI50 [45]?
Answer: The GI50 was 3.91 µM.

Question: What about the TGI [45] of the same compound?
Answer: Its TGI is 17.4 µM.

Question: What about the GI50 [46] of the same compound?
Answer: Its GI50 is 2.91 µM.

Question: And the TGI [46]?
Answer: Its TGI is 9.83 µM.

Question: What about the GI50 [47] of the same compound?
Answer: The GI50 was 0.628 µM.

Question: And the TGI [47]?
Answer: The TGI was 4.29 µM.

Question: What about the GI50 [48] of the same compound?
Answer: Its GI50 is 9.1 µM.

Question: What about the TGI [48] of the same compound?
Answer: The TGI was 22.1 µM.

Question: What about the GI50 [49] of the same compound?
Answer: Its GI50 is 3.21 µM.

Question: What about the TGI [49] of the same compound?
Answer: Its TGI is 12.5 µM.

Question: What about the GI50 [50] of the same compound?
Answer: The GI50 was 8.08 µM.

Question: What about the TGI [50] of the same compound?
Answer: The TGI was 27 µM.
